Data from patent publication EP4458820A1 (Shanghai Institute of Materia Medica, Chinese Academy of …, priority 2021, dated 2023).
“And” between values parts separate entries of the source, which are not always exact repeats. Equal values may be shown once. Read-outs that look alike come from different tables or passages of the source. Values belong to the molecule of their own block, whether it stands above or below them.

Experiments:
thyroid axis = experiment: inhibitory effect on the thyroid axis in C57 mice; format: in vivo; conditions: administered at high doses
[1] = pharmacokinetic studies in mice; format: in vivo; set-up: AUC(0-t) / AUClast: concentration or dose not given beside the values; conditions: for F: bioavailability p.o. versus i.v.
Protocol: The preliminary pharmacokinetic studies in mice or rats of the target compounds with excellent activity obtained from the above studies were conducted to investigate the pharmacokinetic properties of the compounds under oral, intraperitoneal and intravenous administration in detail, and to calculate the parameters of in vivo exposure (AUC), peak concentration (Cmax), time to peak (Tmax), half-life period (T1/2) and bioavailability (F), which would provide a clue for further structural modification and optimization of the compounds, as well as a basis for in vivo dosage design.

[2] = system: THRβ receptor downstream genes; experiment: acute pharmacodynamic evaluation: THRβ receptor downstream gene expression in liver after single administration; format: in vivo, C57 mice
Description: (§1) Mice or rats were used for single oral administration, and liver and heart were taken at 3 time points after administration to detect the expression of THRβ receptor downstream genes (DIO1, ME, CYP7α1, LDLR) in the target organ-liver, and to detect the expression of THRβ receptor downstream genes (DIO1, MHCα) in the organ involved in toxicity-heart.

MHCα = experiment: preliminary safety assessment: MHCα expression in the heart of C57 mice; format: in vivo; conditions: after administration
Description: as §1

[3] = tissue distribution studies in mice; format: in vivo; conditions: for concentration at 3 h / concentration at 8 h / concentration at 24 h: mouse, po
[4] = system: high-fat feed -induced golden hamster model; experiment: pharmacodynamic evaluation in high-fat feed-induced golden hamster model; format: in vivo; conditions: 10 mg/kg, after 21 days of administration
[5] = system: CDAHFD feed-induced NAFLD model mice; experiment: pharmacodynamic evaluation in CDAHFD feed-induced NAFLD model mice; format: in vivo; conditions: after 2 and 4 weeks of long-term administration
[6] = system: cardiac DIO1 and MHCα genes; experiment: in vivo safety evaluation: downstream gene expression in the heart of thyroidectomized rats
Protocol: Normal SD rats, which underwent thyroidectomy and recovered for 1-2 weeks, were grouped by body weight and then given the test compounds or the positive compound MGL-3196. Cardiac tissues were taken after euthanasia 6 h after the administration of the drug to examine the expression of the αMHC gene in the heart after single dose of the drug.

[7] = mouse, in vivo, iv, individual animal
[8] = mouse, in vivo, po, individual animal
[9] = mouse, in vivo, po, individual animal, read-out: Cmax
[10] = mouse, in vivo, po, individual animal, read-out: Tmax
[11] = mouse, in vivo, po, mean, read-out: Cmax
[12] = mouse, in vivo, po, mean, read-out: Tmax
[13] = Table 4, oral 10 mg/kg, 3 h, individual animal, 10 mg/kg
[14] = Table 4, oral 10 mg/kg, 8 h, individual animal, 10 mg/kg
[15] = Table 4, oral 10 mg/kg, 24 h, individual animal, 10 mg/kg
[16] = Table 6, oral 10 mg/kg, 3.00 h, individual animal, 10 mg/kg
[17] = Table 6, oral 10 mg/kg, 8.00 h, individual animal, 10 mg/kg
[18] = Table 6, oral 10 mg/kg, 24.0 h, individual animal, 10 mg/kg

thyroid hormone levels (thyroid axis): did not affect
F [1]: 36.3%
AUClast ([1]; i.v., individual animal): 106.173 µg·h/mL and 104.125 µg·h/mL
T1/2 ([1]; i.v., individual animal): 5.10 h and 6.62 h
Vss_obs ([1]; i.v., individual animal): 0.289 L/kg and 0.253 L/kg and 0.315 L/kg
CL_obs ([1]; i.v., mean): 0.73 mL/min/kg
Vss_obs ([1]; i.v., mean): 0.286 L/kg
AUC(0-t) [1, 7]: 118 µg·h/mL
half-life [1, 7]: 6.4 h
AUC(0-t) ([1]; mouse, in vivo, iv, mean): 109 µg·h/mL
half-life ([1]; mouse, in vivo, iv, mean): 6.04 h
AUC(0-t) [1, 8]: 62.5 µg·h/mL
half-life [1, 8]: 4.31 h
Cmax [1, 9]: 9650 ng/mL
Tmax [1, 10]: 1 h
AUC(0-t) ([1]; mouse, in vivo, po, mean): 79.4 µg·h/mL
half-life ([1]; mouse, in vivo, po, mean): 4.71 h
Cmax [1, 11]: 10500 ng/mL
Tmax [1, 12]: 0.83 h
AUClast ([1]; p.o., individual animal): 100.901 µg·h/mL and 74.686 µg·h/mL
Cmax ([1]; p.o., individual animal): 12800 ng/mL and 9108 ng/mL
T1/2 ([1]; p.o., individual animal): 4.80 h and 5.02 h
Tmax ([1]; p.o., individual animal): 0.50 h
Compound: Cc1cc(-c2ccc(F)cc2)nc2ccc(Oc3c(Cl)cc(-n4nc(C#N)c(=O)[nH]c4=O)cc3Cl)cc12 [Compound 3, 2-(3,5-Dichloro-4-((2-(4-fluorophenyl) -4-methylquinolin-6-yl)oxy)phenyl) -3,5-dioxo-2,3,4,5-tetrahydro-1,2,4-triazine-6-carbonitrile]
CL_obs ([1]; i.v., individual animal): 0.67 mL/min/kg and 0.76 mL/min/kg and 0.75 mL/min/kg
hepatic DIO1 gene expression ([2]; 3h after administration): significantly up-regulated
hepatic DIO1 gene expression ([2]; after 8 h of administration, compared with the negative control group): still effective
upregulation of MHCα in the heart (MHCα): did not result in upregulation

Heart [3, 13]: 115 ng/g and 199 ng/g and 113 ng/g
Liver [3, 13]: 3778 ng/g and 3241 ng/g and 3353 ng/g
Plasma [3, 13]: 8371 ng/mL and 7102 ng/mL and 6639 ng/mL
Heart ([3]; Table 4, oral 10 mg/kg, 24 h, individual animal): BLQ
Heart [3, 16]: 215 ng/g and 169 ng/g
Liver [3, 16]: 1478 ng/g and 1383 ng/g
Plasma [3, 16]: 5796 ng/mL and 4534 ng/mL
Heart [3, 17]: 196 ng/g and 116 ng/g
Liver [3, 17]: 614 ng/g and 469 ng/g
Plasma [3, 17]: 4487 ng/mL and 2490 ng/mL
Heart [3, 18]: 6.36 ng/g and 13.7 ng/g and 20.5 ng/g
Liver [3, 18]: 23.3 ng/g and 39.5 ng/g and 56.7 ng/g
Plasma [3, 18]: 165 ng/mL and 335 ng/mL and 412 ng/mL
concentration at 3 h ([3]; heart, 10 mg/kg, Table 4, 3 h, individual animal, read-out: Heart): 189 ng/g
concentration at 3 h ([3]; heart, 10 mg/kg, Table 4, 3 h, mean, read-out: Heart Mean): 154 ng/g
concentration at 8 h ([3]; heart, 10 mg/kg, Table 4, 8 h, mean, read-out: Heart Mean): 50.5 ng/g
concentration at 24 h ([3]; heart, 10 mg/kg, Table 4, 24 h, mean, read-out: Heart Mean): 0 ng/g
concentration at 3 h ([3]; heart, 10 mg/kg, Table 6, 3.00 h, individual animal, read-out: Heart): 197 ng/g
concentration at 3 h ([3]; heart, 10 mg/kg, Table 6, 3.00 h, mean, read-out: Heart Mean): 194 ng/g
concentration at 8 h ([3]; heart, 10 mg/kg, Table 6, 8.00 h, individual animal, read-out: Heart): 139 ng/g
concentration at 8 h ([3]; heart, 10 mg/kg, Table 6, 8.00 h, mean, read-out: Heart Mean): 150 ng/g
concentration at 24 h ([3]; heart, 10 mg/kg, Table 6, 24.0 h, mean, read-out: Heart Mean): 13.5 ng/g
concentration at 3 h ([3]; liver, 10 mg/kg, Table 4, 3 h, individual animal, read-out: Liver): 4300 ng/g
concentration at 3 h ([3]; liver, 10 mg/kg, Table 4, 3 h, mean, read-out: Liver Mean): 3670 ng/g
concentration at 8 h ([3]; liver, 10 mg/kg, Table 4, 8 h, mean, read-out: Liver Mean): 617 ng/g
concentration at 24 h ([3]; liver, 10 mg/kg, Table 4, 24 h, mean, read-out: Liver Mean): 22 ng/g
concentration at 3 h ([3]; liver, 10 mg/kg, Table 6, 3.00 h, individual animal, read-out: Liver): 1880 ng/g
concentration at 3 h ([3]; liver, 10 mg/kg, Table 6, 3.00 h, mean, read-out: Liver Mean): 1580 ng/g
concentration at 8 h ([3]; liver, 10 mg/kg, Table 6, 8.00 h, individual animal, read-out: Liver): 689 ng/g
concentration at 8 h ([3]; liver, 10 mg/kg, Table 6, 8.00 h, mean, read-out: Liver Mean): 591 ng/g
concentration at 24 h ([3]; liver, 10 mg/kg, Table 6, 24.0 h, mean, read-out: Liver Mean): 39.8 ng/g
concentration at 3 h ([3]; plasma, 10 mg/kg, Table 4, 3 h, individual animal, read-out: Plasma): 9340 ng/mL
concentration at 3 h ([3]; plasma, 10 mg/kg, Table 4, 3 h, mean, read-out: Plasma Mean): 7860 ng/mL
concentration at 8 h ([3]; plasma, 10 mg/kg, Table 4, 8 h, mean, read-out: Plasma Mean): 3220 ng/mL
concentration at 24 h ([3]; plasma, 10 mg/kg, Table 4, 24 h, mean, read-out: Plasma Mean): 164 ng/mL
concentration at 3 h ([3]; plasma, 10 mg/kg, Table 6, 3.00 h, mean, read-out: plasma Mean): 5260 ng/mL
concentration at 8 h ([3]; plasma, 10 mg/kg, Table 6, 8.00 h, mean, read-out: plasma Mean): 3430 ng/mL
concentration at 24 h ([3]; plasma, 10 mg/kg, Table 6, 24.0 h, mean, read-out: plasma Mean): 304 ng/mL
concentration at 3 h ([3]; 10 mg/kg, Table 6, 3.00 h, individual animal, read-out: plasma): 5450 ng/mL
concentration at 8 h ([3]; 10 mg/kg, Table 6, 8.00 h, individual animal, read-out: plasma): 3330 ng/mL
F [1]: 75.8%
AUClast ([1]; i.v., individual animal): 95.351 µg·h/mL and 95.119 µg·h/mL
Cmax ([1]; i.v., individual animal): 95119 ng/mL
T1/2 ([1]; i.v., individual animal): 4.30 h and 4.77 h
Vss_obs ([1]; i.v., individual animal): 0.22 L/kg and 0.27 L/kg and 0.267 L/kg
CL_obs ([1]; i.v., mean): 0.802 mL/min/kg
Vss_obs ([1]; i.v., mean): 0.252 L/kg
AUC(0-t) [1, 7]: 119 µg·h/mL
half-life [1, 7]: 3.93 h
Cmax ([1]; mouse, in vivo, iv, individual animal, read-out: Cmax): 95400 ng/mL
AUC(0-t) ([1]; mouse, in vivo, iv, mean): 103 µg·h/mL
half-life ([1]; mouse, in vivo, iv, mean): 4.33 h
AUC(0-t) [1, 8]: 162 µg·h/mL
half-life [1, 8]: 5.01 h
Cmax [1, 9]: 26000 ng/mL
Tmax [1, 10]: 0.5 h
AUC(0-t) ([1]; mouse, in vivo, po, mean): 156 µg·h/mL
half-life ([1]; mouse, in vivo, po, mean): 4.44 h
Cmax [1, 11]: 23100 ng/mL
Tmax [1, 12]: 0.83 h
AUClast ([1]; p.o., individual animal): 176.967 µg·h/mL and 130.466 µg·h/mL
Cmax ([1]; p.o., individual animal): 23595 ng/mL and 19689 ng/mL
T1/2 ([1]; p.o., individual animal): 4.18 h and 4.13 h
Tmax ([1]; p.o., individual animal): 1.00 h
Compound: Cc1cc(C(F)(F)F)nc2ccc(Oc3c(Cl)cc(-n4nc(C#N)c(=O)[nH]c4=O)cc3Cl)cc12 [Compound 38, 2-(3,5-Dichloro-4-((2-trifluoromethyl-4-methylquinolin-6-yl)oxy)phenyl) -3,5-dioxo-2,3,4,5-tetrahydro-1,2,4-triazine-6-carbonitrile]
Heart [3, 14]: 39.9 ng/g and 72.2 ng/g and 26.4 ng/g and 63.3 ng/g
Liver [3, 14]: 582 ng/g and 895 ng/g and 264 ng/g and 729 ng/g
Plasma [3, 14]: 2473 ng/mL and 4555 ng/mL and 2005 ng/mL and 3847 ng/mL
Liver [3, 15]: 29.5 ng/g and 27.8 ng/g and 14.5 ng/g and 16.3 ng/g
Plasma [3, 15]: 281 ng/mL and 192 ng/mL and 88.6 ng/mL and 93.6 ng/mL
serum TC/TG levels and LCL-C levels [4]: significant decrease
plasma TC levels ([5]; 1 mg/kg dosage group): decreased
plasma TC levels ([5]; 10 mg/kg dosage group): decreased
CL_obs ([1]; i.v., individual animal): 0.691 mL/min/kg and 0.859 mL/min/kg and 0.856 mL/min/kg
expression of CYP7α1, ME2, and LDLR genes in the liver ([2]; C57 mice, single administration, 10 mg/kg, after 24 h of administration): significantly up-regulated
DIO1 gene expression in the liver ([2]; C57 mice, single administration, after 8 and 24 h of administration, T3 0.5 mg/kg, compound 38 10 mg/kg): significantly up-regulated
effects on cardiac DIO1 and MHCα genes [6]: neither compound 38 nor MGL3196 had significant effects
